Data as given in patent publication US4221789A, “Lactam-N-acetic acids and their amides” (UCB, Societe Anonyme, priority 1978, dated 1980).
Counter-ions that a name gives are not always drawn. Like-named read-outs stand apart in the source and are kept apart here.

How the values were obtained:
[1] = test system: papillary muscle isolated from the cat's heart; experiment: "papillary muscle" test (inotropic activity); conditions: for activation at 10 µg/kg, 0.01 mg/kg: Felis catus, read-out: increase of the strength of muscular contraction
Protocol: The method used is that of M. K. CATTELL and H. GOLD (J.Pharmacol.Exptl. Therap.62, (1938), 116-125). The experiment is carried out on a papillary muscle isolated from the cat's heart and dipped in a physiological salt solution to which the compound to be tested is added.

rat [2] = experiment: active avoidance test (memory retention; paw withdrawal threshold); assay type: in vivo; conditions: for minimal effective dose: sc, read-out: Active dose
Description: (A) The action on mnemic processes is first shown by the ability of the compounds to improve a type of memory retention in the rat. The principle of the active avoidance test (see M. GREINDL and S. PREAT, Arch.Int. Pharmacodyn.Therap.223,(1976),(1),168-171) developed in our laboratories and used for this purpose, may be described as follows: the withdrawal reaction of a rat's paw when subjected to an increasing, quantified pressure is observed. The pressure at which the withdrawal reaction is produced, is called the reaction threshold. This threshold is expressed by the number of graduations of the scale of the apparatus used (Analgesymeter Ugo Basile, Milan) and thus corresponds to the minimum pressure which brings about withdrawal when applied to the animal's paw. It is read off directly on the scale of the apparatus used.
Inversely, animals treated with a substance having a positive effect on the mnemic processes (such as piracetam) show a significant degree of retention: the stimulus to which the rats react by a reflex of avoidance is statistically lower than that of the control animals. A minimum of 20 rats per test are used (10 treated rats and 10 control rats) and the active dose is defined as the minimum dose lowering the stimulus to below 11 graduations.

rat [3] = experiment: reduction of the spinal fixation time; assay type: in vivo; conditions: for minimal effective dose: ip, 35 min, read-out: Active dose
Description: (B) The action on the mnemic processes is also shown by the reduction of the spinal fixation time, a test which has been described in literature (see C. GIURGEA and F. MOURAVIEFF-LESUISSE, Arch.Int.Pharmacodyn.191,(1971,No. 2), 279) as an elementary model of memory and which provides pharmacological reactivity in good correlation with clinical physiopathology. In the rat, after unilateral lesion of the cerebellum, there is a postural asymmetry of the hind paws. This asymmetry may-persist, even after spinal section, if the animal has passed a sufficient period of time in this position. This time, which is called the spinal fixation time, is 45 minutes under the experimental conditions applied here.
On the other hand, if spinal section is performed before the expiry of this period of time, for example 35 minutes after the onset of asymmetry, the latter disappears.
Inversely, any product which allows the rats to retain the asymmetry (thus effecting spinal fixation), when the spinal section is performed after 35 minutes, is considered to be active.
By "number of animals" is to be understood the number of animals which responded positively to the test in relation to the number of animals tested at the dose indicated: […]

mice = experiment: toxicity in mice, intraperitoneal (Irwin's test); assay type: in vivo
Description: The compounds of formula I have a remarkably low toxicity.
*Dose which brings about the death of one animal out of three in Irwin's
test (S. IRWIN, Gordon Research Conference on Medicinal Chemistry, Colby
Junior College, New London, 1959).

[4] = toxicity in the rat, intravenous or oral (LD 50); conditions: in vivo
Description: Furthermore, when administered intravenously (i.v.) or orally in the rat, the compounds also have a low toxicity, as indicated in the following Table: […]

[5] = rat, intraperitoneal, 0.1 mmol/kg, spinal section after 35 minutes
[6] = rat, intraperitoneal, spinal section after 35 minutes
[7] = rat, intraperitoneal, 0.2 mmol/kg, spinal section after 35 minutes
[8] = rat, subcutaneous, minimum dose lowering the stimulus to below 11 graduations, tested 24 hours later

Row | Structure (SMILES) | minimal effective dose (rat [2]; Rattus norvegicus, 24 h) | Dose which brings about the death of one animal out of three in Irwin's test (mice; mice, intraperitoneal) | Dose which brings about the death of one animal out of three in Irwin's test (mice; mouse, in vivo, ip) | further results
1 | Cn1c(=O)c2c(ncn2C)n(C)c1=O [caffeine, reference compound] | – | – | – | activation at 10 µg/kg, 0.01 mg/kg ([1]; isolated cat papillary muscle, at the dose of 10 μg/kg): 4%
2 | O=C(NCc1ccccc1)C(CCO)N1CCCC1=O (stereo not drawn) [Example 6.6, N-Benzyl-alpha-(2-hydroxyethyl)-2-oxo-1-pyrrolidineacetamide] | 2 µmol/kg | 822 mg/kg | – | minimal effective dose (rat [3]; Rattus norvegicus): 100 µmol/kg; Number of animals which responded positively / number tested (rat [3]; [5]): 3/7
3 | CCCNC(=O)C(CCO)N1CCCC1=O (stereo not drawn) [Example 6.3, alpha-(2-Hydroxyethyl)-N-propyl-2-oxo-1-pyrrolidineacetamide] | 0.1 µmol/kg | > 1368 mg/kg | – | –
4 | CCCCNC(=O)C(CCO)N1CCCC1=O (stereo not drawn) [Example 5.1, N-n-Butyl-alpha-(2-hydroxyethyl)-2-oxo-1-pyrrolidineacetamide] | – | > 1452 mg/kg | – | –
5 | NC(=O)CN1CCCC1=O [Compound A, 2-oxo-1-pyrrolidineacetamide, reference compound] | 25 µmol/kg | – | – | minimal effective dose (rat [3]; [6]): 200 µmol/kg; Number of animals which responded positively / number tested (rat [3]; [7]): 4/9
6 | CC1CCN(C(CCO)C(N)=O)C1=O (stereo not drawn) [Example 4.2, alpha-(2-Hydroxyethyl)-3-methyl-2-oxo-1-pyrrolidineacetamide] | – | > 1200 mg/kg | – | –
7 | NC(=O)C(CCO)N1CC(c2ccc(Cl)cc2)C(c2ccccc2)C1=O (stereo not drawn) [Example 4.5, 4-p-Chlorophenyl-alpha-(2-hydroxyethyl)-3-phenyl-2-oxo-1-pyrrolidineacetamide] | – | – | > 224 mg/kg | –
8 | O=C(C(CCO)N1CCCC1=O)N1CCN(Cc2ccccc2)CC1 (centres unmarked) [Example 6.4, 1-Benzyl-4-[4-hydroxy-2-(2-oxo-1-pyrrolidinyl)butyryl]-piperazine] | – | – | > 345 mg/kg | minimal effective dose (rat [2]; [8]): 1 µmol/kg
9 | CCCCC1CCN(C(CCO)C(N)=O)C1=O (stereo not drawn) [Example 4.4, 3-n-Butyl-alpha-(2-hydroxyethyl)-2-oxo-1-pyrrolidineacetamide] | – | – | > 1452 mg/kg | –
10 | CC1CC(C)N(C(CCO)C(N)=O)C1=O (stereo not drawn) [Example 4.3, alpha-(2-Hydroxyethyl)-3,5-dimethyl-2-oxo-1-pyrrolidineacetamide] | – | > 1286 mg/kg | – | –
11 | O=C(C(CCO)N1CCCC1=O)N1CCOCC1 (centres unmarked) [Example 6.1, 4-[4-Hydroxy-2-(2-oxo-1-pyrrolidinyl)butyryl]-morpholine] | 0.2 µmol/kg | > 1536 mg/kg | – | –
12 | O=C(NC1CCCCC1)C(CCO)N1CCCC1=O (stereo not drawn) [Example 5.2, N-Cyclohexyl-alpha-(2-hydroxyethyl)-2-oxo-1-pyrrolidineacetamide] | – | – | > 1608 mg/kg | –
13 | CCN(CC)C(=O)C(CCO)N1CCCC1=O (stereo not drawn) [Example 5.3, N,N-Diethyl-alpha-(2-hydroxyethyl)-2-oxo-1-pyrrolidineacetamide] | 0.2 µmol/kg | > 1452 mg/kg | – | –
14 | O=C(C(CCO)N1CCCC1=O)N1CCCCC1 (centres unmarked) [Example 6.2, 1-[4-Hydroxy-2-(2-oxo-1-pyrrolidinyl)butyryl]-piperidine] | – | > 1524 mg/kg | – | –
15 | CCC(C(N)=O)N1CCCC1=O (stereo not drawn) [Compound B, alpha-ethyl-2-oxo-1-pyrrolidineacetamide, reference compound] | 5 µmol/kg | – | – | minimal effective dose (rat [3]; [6]): 200 µmol/kg; Number of animals which responded positively / number tested (rat [3]; [7]): 7/22
16 | O=C(O)C(CCO)N1CCCC1=O (stereo not drawn) [Example 3, alpha-(2-Hydroxyethyl)-2-oxo-1-pyrrolidineacetic acid] | – | – | > 1222 mg/kg | minimal effective dose (rat [3]; [6]): 100 µmol/kg; Number of animals which responded positively / number tested (rat [3]; [5]): 4/7
17 | NC(=O)C(CCO)N1CCCC1=O (stereo not drawn) [Example 4.1, alpha-(2-Hydroxyethyl)-2-oxo-1-pyrrolidineacetamide] | 2 µmol/kg | > 1116 mg/kg | – | activation at 10 µg/kg, 0.01 mg/kg [1]: 7%; inotropic activity ([1]; isolated cat papillary muscle, comparison with caffeine): superior to that of caffeine; minimal effective dose (rat [3]; Rattus norvegicus): 100 µmol/kg; Number of animals which responded positively / number tested (rat [3]; [5]): 3/7; LD50 ([4]; iv): > 4000 mg/kg; LD50 ([4]; po, orally): > 10000 mg/kg
18 | O=C(O)C(O)N1CCCC1=O (stereo not drawn) [Example 2, alpha-Hydroxy-2-oxo-1-pyrrolidineacetic acid (dicyclohexylamine salt)] | – | – | > 102 mg/kg | minimal effective dose (rat [2]; [8]): 5 µmol/kg; minimal effective dose (rat [3]; [6]): 100 µmol/kg; Number of animals which responded positively / number tested (rat [3]; [5]): 4/7
19 | O=C(O)CN1CCCC1=O [Compound C, 2-oxo-1-pyrrolidineacetic acid, reference compound] | – | – | – | activity in the active avoidance test (rat [2]; rat, subcutaneous, at the dose of 0.1 mmol/kg): inactive; minimal effective dose (rat [3]; [6]): 320 µmol/kg; Number of animals which responded positively / number tested (rat [3]; rat, intraperitoneal, 0.32 mmol/kg, spinal section after 35 minutes): 2/4
20 | O=C(NC1CCCC1)C(CCO)N1CCCC1=O (stereo not drawn) [Example 6.5, N-cyclopentyl-alpha-(2-hydroxyethyl)-2-oxo-1-pyrrolidineacetamide] | – | – | > 762 mg/kg | minimal effective dose (rat [2]; [8]): 0.2 µmol/kg
21 | CC(C)NC(=O)C(CCO)N1CCCC1=O (stereo not drawn) [Example 5.4, alpha-(2-Hydroxyethyl)-N-isopropyl-2-oxo-1-pyrrolidineacetamide] | – | > 1368 mg/kg | – | –
